Test results reported in patent US4800194A, “Acylphosphorotriamides useful as lipid-altering agents” (priority 1986, dated 1989).

How the values were obtained:
pseudocholinesterase [1] = target: T1, pseudocholinesterase (Homo sapiens, UniProt P06276); assay: Inhibition of human plasma pseudocholinesterase (PChE) activity (Test Method 1); format: biochemical; conditions: 30 min preincubation
T1 construct: a 100 μl aliquot of human plasma; from tissue; host or cells: human plasma (EDTA blood, stored frozen)
T1 sequence (P06276 29-602): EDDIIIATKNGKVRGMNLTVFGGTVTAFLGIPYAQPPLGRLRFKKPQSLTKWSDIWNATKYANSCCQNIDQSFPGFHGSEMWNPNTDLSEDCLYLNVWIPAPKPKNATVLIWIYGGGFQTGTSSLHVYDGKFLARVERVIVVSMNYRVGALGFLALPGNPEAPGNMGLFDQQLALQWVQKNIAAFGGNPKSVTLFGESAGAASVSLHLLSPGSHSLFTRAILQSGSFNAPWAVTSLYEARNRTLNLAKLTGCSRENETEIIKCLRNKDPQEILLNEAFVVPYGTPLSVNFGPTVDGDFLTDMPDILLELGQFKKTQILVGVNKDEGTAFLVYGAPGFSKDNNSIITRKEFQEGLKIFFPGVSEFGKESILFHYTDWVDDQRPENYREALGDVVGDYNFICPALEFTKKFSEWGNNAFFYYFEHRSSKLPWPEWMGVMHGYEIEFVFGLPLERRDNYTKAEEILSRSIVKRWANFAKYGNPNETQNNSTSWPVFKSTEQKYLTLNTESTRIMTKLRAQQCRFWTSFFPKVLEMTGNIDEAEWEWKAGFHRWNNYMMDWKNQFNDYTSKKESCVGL
Procedure: (§1) The following method was used to determine the relative inhibition of pseudocholinesterase and acetylcholinesterase by compounds of the present invention.
Plasma (Source of Pseudocholinesterase Enzyme)
Human Plasma was obtained from blood which was collected in ethylenediaminetetraacetic acid (EDTA) treated tubes. Collected plasma was stored frozen at -20° C. until use.
(§2) The buffer/chromogen solution was 0.25 mM 5,5'-dithiobis-[2-nitrobenzoic acid] (chromogen), 50 mM phosphate buffer, pH 7.2. In making up the buffer/chromogen solution and to keep it as colorless as possible, the phosphate buffer was first adjusted to pH 7.1 with NaOH; the chromogen was then added and dissolved; the pH was adjusted to 7.2; and the final volume was adjusted with addition of Milli-Q water. 5,5'-dithiobis-(2-nitrobenzoic acid) was obtained from Sigma Chemicals, St. Louis, MO.
(§3) The substrate solution for the pseudocholinesterase assay was 156 mM S-butyrylthiocholine iodide, and the substrate solution for the acetylcholinesterase assay was 156 mM S-acetylthiocholine iodide. Both substrate compounds were obtained from Sigma Chemicals.
(§4) Test Compound Stock Solutions
(§5) Solutions of all test compounds were made up at 2 μM, 20 μM, and 200 μM concentrations (in 0.9% saline solution) except as noted where lower concentrations were necessary because of decreased solubility of the compound in saline solution.
Pseudocholinesterase (PChE) Assay
In three separate tubes, a 100 μl aliquot of either 0.9% saline solution, 2 μM test compound solution, or 20 μM test compound solution was mixed with a 100 μl aliquot of human plasma, and the tubes were placed in a 35° C. water bath. Four cuvettes, each containing 3 ml buffer/chromogen solution mixed with 100 μl substrate solution (156 mM S-butyrylthiocholine iodide), had been placed in a heated cuvette holder (35° C.) in a Beckman DU-8B Spectrophotometer (Beckman Instruments). After the temperature of the buffer/chromogen/substrate solution in the cuvette had equilibrated for about 10 minutes, and after 0 or 30 minutes incubation of the plasma/test compound solution, a 25 μl aliquot of the plasma/test compound solutions was added to the corresponding cuvettes numbered 2-4. Cuvette #1 remained a blank. After mixing, the net absorbance of each cuvette was determined at 405 nm every 35 seconds for ten readings. From a plot of net absorbance versus time, the initial linear portion of the curve was determined, and a rate of absorbance change per minute was calculated. The positive control (100% PChE activity) was the plasma/saline solution.
(§6) Each compound was tested for its ability to inhibit plasma pseudocholinesterase activity and acetylcholinesterase activity. Because of variation in the time points in the linear portion of the curve, inhibition values below 10-15% and higher than 85-90% are nearly indistinguishable from 0% and 100%, respectively.

acetylcholinesterase = target: T2, acetylcholinesterase (Homo sapiens, UniProt P22303); assay: Inhibition of acetylcholinesterase (AChE) activity of lysed human red blood cells (Test Method 1); format: biochemical; conditions: 60 min preincubation
T2 construct: The supernatant (lysed RBC's) was stored frozen; from tissue; host or cells: lysed human red blood cells (supernatant of hypotonic lysis)
T2 sequence (P22303 other isoform, or with tags, fused parts or gaps): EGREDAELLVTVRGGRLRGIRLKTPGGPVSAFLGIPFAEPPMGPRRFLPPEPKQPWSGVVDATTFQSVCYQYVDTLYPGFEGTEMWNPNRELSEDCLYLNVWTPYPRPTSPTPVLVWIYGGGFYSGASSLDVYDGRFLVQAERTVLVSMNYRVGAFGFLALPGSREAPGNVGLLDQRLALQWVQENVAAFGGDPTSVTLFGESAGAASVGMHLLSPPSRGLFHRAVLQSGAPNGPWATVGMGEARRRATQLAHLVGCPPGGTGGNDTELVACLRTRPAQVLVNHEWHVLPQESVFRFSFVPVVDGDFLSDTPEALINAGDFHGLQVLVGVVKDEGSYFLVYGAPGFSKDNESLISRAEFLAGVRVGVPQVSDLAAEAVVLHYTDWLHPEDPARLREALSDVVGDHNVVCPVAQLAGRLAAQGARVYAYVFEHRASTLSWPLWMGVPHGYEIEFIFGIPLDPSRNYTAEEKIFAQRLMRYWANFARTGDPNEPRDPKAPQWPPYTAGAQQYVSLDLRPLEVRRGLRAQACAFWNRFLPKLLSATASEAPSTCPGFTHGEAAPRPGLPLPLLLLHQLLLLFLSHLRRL
Procedure: as §1
Lysed Red Blood Cells (RBC's) (Source of Acetylcholinesterase Enzyme)
Human blood which was collected in EDTA treated tubes was centrifuged at 1500×g for 10 min. at 4° C. One volume of chilled 0.9% saline solution was gently mixed with one volume of packed RBC's. One volume of this suspension was then washed three times with ten volumes of chilled 0.9% saline solution (4° C.). Each wash was centrifuged at 1500×g for 10 min. at 4° C. and supernatant was discarded. After the last wash the supernatant was replaced with deionized, distilled water (treated by Milli-Q apparatus, Millipore Corp., Bedford, MA) (4° C.). After 15 min. at 4° C. the suspension was centrifuged at 1500×g for 10 min. at 4° C. The supernatant (lysed RBC's) was stored frozen at -20° C. until use.
as §2, §3, §4, §5
Acetylcholinesterase (AChE) Assay
The acetylcholinesterase assay was performed identically to the pseudocholinesterase assay with the following exceptions. The concentrations of the stock solutions of test compounds were 20 μM and 200 μM, instead of 2 μM and 20 μM, and the substrate solution was 156 mM S-acetylthiocholine iodide instead of S-butyrylthiocholine iodide. The lysed RBC's/test compound solution was incubated for 0 and 60 minutes instead of 0 and 30 minutes before being added to the cuvette containing the buffer/chromogen/substrate solution. From a plot of net absorbance versus time there was an initial period before the curve reached a steady linear rate. From this linear portion of the curve a rate of absorbance change per minute was calculated.
as §6

[2] = accidental poisoning; cited from earlier work
pseudocholinesterase [3] = conditions: accidental poisoning; cited from earlier work

Row | SMILES | inhibition at 1 µM (pseudocholinesterase [1]) [%] | inhibition at 10 µM (pseudocholinesterase [1]; 10 μM) [%] | inhibition at 10 µM (acetylcholinesterase) [%] | inhibition at 100 µM (acetylcholinesterase) [%] | also measured
1 | NP(N)(=O)NC(=O)c1ccc2ccccc2c1 [Test Compound 17] | – | – | – | – | inhibition at 0.5 µM (pseudocholinesterase [1]; 0.5 μM (footnote a)): 27.4%; inhibition at 5 µM (pseudocholinesterase [1]; 5.0 μM (footnote a)): 95.1%; inhibition at 5 µM (acetylcholinesterase; 5 μM (footnote a)): 16%; inhibition at 50 µM (acetylcholinesterase; 50 μM (footnote a)): 87.2%
2 | NP(N)(=O)NC(=O)c1ccccc1 [Test Compound 1] | 92.7 | 99.1 | 4.1 | 37.3 | –
3 | NP(N)(=O)NC(=O)c1cccc(Oc2ccccc2)c1 [Test Compound 19] | 63.7 | 98.3 | 15.8 | 64.2 | –
4 | NP(N)(=O)NC(=O)c1ccc(Cl)cc1 [Test Compound 6] | 87.7 | 98.7 | 5.4 | 86.5 | –
5 | N#Cc1ccc(C(=O)NP(N)(N)=O)cc1 [Test Compound 12] | 97.4 | 98.8 | 34.4 | 85.5 | –
6 | Nc1ccc(S(=O)(=O)Nc2cccc(C(=O)NP(N)(N)=O)c2)cc1 [Test Compound 25] | 97.2 | 99 | 62.2 | 88.5 | –
7 | COc1ccc(C(=O)NP(N)(N)=O)cc1 [Test Compound 8] | 83.4 | 96.3 | 3 | 34.2 | –
8 | Cc1ccc(C(=O)NP(N)(N)=O)cc1 [Test Compound 9] | 73.7 | 98.1 | 9.6 | 46 | –
9 | CCCCOc1ccc(C(=O)NP(N)(N)=O)cc1 [Test Compound 22] | 28.8 | 94.9 | 12.6 | 57.4 | –
10 | NP(N)(=O)NC(=O)c1c(F)cccc1F [Test Compound 21] | 74.4 | 98.7 | 51.1 | 93.7 | –
11 | NP(N)(=O)NC(=O)c1cccnc1 [Test Compound 2] | 84.1 | 97.6 | -1.9 | 70.7 | –
12 | NP(N)(=O)NC(=O)Cc1ccccc1 [Test Compound 18] | 10.7 | 61.3 | 17.1 | 85.2 | –
13 | CC(C)(C)c1ccc(C(=O)NP(N)(N)=O)cc1 [Test Compound 16] | 46.3 | 97.9 | 3.1 | 38.7 | –
14 | CCOP(=S)(OCC)Oc1ccc([N+](=O)[O-])cc1 [parathione] | – | – | – | – | HDL [2]: increased; blood plasma level of LDL [2]: markedly decreased; blood plasma level of pseudocholinesterase (pseudocholinesterase [3]): markedly decreased
15 | NP(N)(=O)NC(=O)c1ccc([N+](=O)[O-])o1 [Test Compound 28] | 21 | 90.8 | 46.9 | 93.1 | –
16 | CS(=O)(=O)c1ccc(C(=O)NP(N)(N)=O)cc1 [Test Compound 20, N-(diaminophosphinyl)-4-(methylsulfonyl)benzamide] | 92.9 | 98.5 | 20.5 | 86.4 | –
17 | NP(N)(=O)NC(=O)c1cccc([N+](=O)[O-])c1 [Test Compound 7] | 65.6 | 98.9 | 23.9 | 86.6 | –
18 | Nc1ccc(C(=O)NP(N)(N)=O)cc1 [Test Compound 5] | 57.7 | 98.2 | 1.8 | 32.1 | –
19 | CC(C)NP(N)(=O)NC(=O)c1ccc(F)cc1 (stereo not drawn) [Test Compound 27, N-[amino-(1-methylethylamino)phosphinyl]-4-fluorobenzamide] | – | – | – | – | inhibition at 10 µM (pseudocholinesterase [1]; 10 μM (footnote c)): 8.7%; inhibition at 100 µM (pseudocholinesterase [1]; 100 μM (footnote c)): 43.3%; inhibition at 50 µM (acetylcholinesterase; 50 μM (footnote c)): 5.8%; inhibition at 500 µM (acetylcholinesterase; 500 μM (footnote c)): 32.2%
20 | NP(N)(=O)NC(=O)c1cccc(C(F)(F)F)c1 [Test Compound 14] | 25 | 94.1 | 25.7 | 85.9 | –
21 | NP(N)(=O)NC(=O)c1ccc([N+](=O)[O-])cc1 [Test Compound 3] | 90.4 | 99 | 64.3 | 86.9 | –
22 | NP(N)(=O)NC(=O)c1ccccc1F [Test Compound 15] | 97.4 | 99.3 | 14.7 | 82.1 | –
23 | NP(N)(=O)NC(=O)c1ccccc1Cl [Test Compound 11] | 49.5 | 98.5 | 32.1 | 87.3 | –
24 | Cc1ccccc1C(=O)NP(N)(N)=O [Test Compound 10] | 21.4 | 89.2 | 8.6 | 44.5 | –
25 | NP(N)(=O)NC(=O)c1cccc(F)c1 [Test Compound 13] | 80.2 | 98.8 | -4 | 41.3 | –
26 | NP(N)(=O)NC(=O)c1ccco1 [Test Compound 26] | 91 | 98.7 | 7.7 | 73 | –
27 | NP(N)(=O)NC(=O)C=Cc1ccccc1 [Test Compound 23] | 11.5 | 73.2 | 6.6 | 54.8 | –
28 | NP(N)(=O)NC(=O)c1ccc(-c2ccccc2)cc1 [Test Compound 24] | – | – | – | – | inhibition at 0.25 µM (pseudocholinesterase [1]; 0.25 μM (footnote b)): 5.3%; inhibition at 2.5 µM (pseudocholinesterase [1]; 2.5 μM (footnote b)): 66.6%; inhibition at 2.5 µM (acetylcholinesterase; 2.5 μM (footnote b)): -3.7%; inhibition at 25 µM (acetylcholinesterase; 25 μM (footnote b)): 34.8%
